Source: publication PMC10865363, “Structural, Biochemical, and Computational Characterization of Sulfamides as Bimetallic Peptidase Inhibitors” (Journal of Chemical Information and Modeling, 2024)
Structures can show the parent of a compound that is named as a salt.

Assays:
[1] = molecular target: T1, Prostate-specific membrane antigen (PSMA) (Homo sapiens, UniProt Q04609); experiment: radioenzymatic assay with 3H-NAAG, purified recombinant PSMA; type: biochemical
T1 construct: gene FOLH1; extracellular part of human PSMA; amino acids 44–750
T1 sequence (Q04609 44-750): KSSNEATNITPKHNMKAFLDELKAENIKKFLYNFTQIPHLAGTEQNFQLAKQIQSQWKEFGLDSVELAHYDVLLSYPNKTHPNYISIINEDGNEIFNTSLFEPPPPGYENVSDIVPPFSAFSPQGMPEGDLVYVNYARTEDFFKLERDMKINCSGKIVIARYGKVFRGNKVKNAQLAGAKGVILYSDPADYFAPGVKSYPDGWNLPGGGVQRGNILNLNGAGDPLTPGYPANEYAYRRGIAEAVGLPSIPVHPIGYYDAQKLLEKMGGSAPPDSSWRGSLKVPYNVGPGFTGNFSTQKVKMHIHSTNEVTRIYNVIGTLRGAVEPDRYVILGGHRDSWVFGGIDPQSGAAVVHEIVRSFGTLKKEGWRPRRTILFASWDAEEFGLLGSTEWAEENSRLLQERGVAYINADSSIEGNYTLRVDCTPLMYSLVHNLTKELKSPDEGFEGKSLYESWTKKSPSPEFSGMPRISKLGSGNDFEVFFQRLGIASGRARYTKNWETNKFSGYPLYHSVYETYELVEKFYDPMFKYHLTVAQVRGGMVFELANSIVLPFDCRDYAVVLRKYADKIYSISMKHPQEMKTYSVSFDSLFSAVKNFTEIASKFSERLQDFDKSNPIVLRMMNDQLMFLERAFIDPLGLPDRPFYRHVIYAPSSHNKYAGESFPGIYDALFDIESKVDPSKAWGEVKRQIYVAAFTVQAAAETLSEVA

[2] = molecular target: T1, Prostate-specific membrane antigen (PSMA); experiment: X-ray crystal structure ([…] Å); IC50 from radioenzymatic 3H-NAAG assay with purified enzyme; type: biochemical

Compound | IC50 [1] [µM] | IC50 [2] [µM]
O=C(O)CC[C@H](NS(=O)(=O)N[C@@H](CC(=O)O)C(=O)O)C(=O)O [compound 3, (S)-2-((N-((S)-1,2-Dicarboxyethyl)sulfamoyl)amino)pentanedioic Acid Tetrasodium Salt] | 103 | –
O=C(O)CC[C@H](NS(=O)(=O)N[C@@H](CCC(=O)O)C(=O)O)C(=O)O [compound 4, (2S,2′S)-2,2′-(Sulfonylbis(azanediyl))dipentanedioic Acid] | 165 | –
NS(=O)(=O)N[C@@H](CCC(=O)O)C(=O)O [compound 9, monosubstituted glutamyl sulfamide 9] | – | 1.2
